Assay results from the NIST ThermoML archive (doi:10.1021/je5010214).

Conditions: Liquid, Vibrating tube method

CCCCCCC [heptane]
Conditions	mass density [kg/m3]
343.15 K, 47908 kPa	688
343.15 K, 50059 kPa	689.668
343.15 K, 52026 kPa	691.103
343.15 K, 59944 kPa	696.69
343.15 K, 61966 kPa	697.921
343.15 K, 65070 kPa	699.939
343.15 K, 66059 kPa	700.533
343.16 K, 34034 kPa	676.976
343.16 K, 54918 kPa	693.158
343.16 K, 57986 kPa	695.23
348.15 K, 100.3 kPa	636.109
348.15 K, 462.2 kPa	636.505
348.15 K, 859.8 kPa	637.192
348.15 K, 974.2 kPa	637.393
348.15 K, 1974.9 kPa	638.781
348.15 K, 3051.1 kPa	640.295
348.15 K, 5094 kPa	643.002
348.15 K, 10025 kPa	649.256
348.15 K, 14792 kPa	654.622
348.15 K, 20111 kPa	660.386
348.15 K, 22163 kPa	662.539
348.15 K, 28080 kPa	668.108
348.15 K, 30149 kPa	670.002
348.15 K, 32161 kPa	671.799
348.15 K, 32935 kPa	672.452
348.15 K, 33959 kPa	673.504
348.15 K, 35045 kPa	674.428
348.15 K, 37937 kPa	676.834
348.15 K, 40026 kPa	678.502
348.15 K, 45051 kPa	682.511
348.15 K, 47915 kPa	684.825
348.15 K, 49950 kPa	686.336
348.15 K, 52167 kPa	688.088
348.15 K, 55022 kPa	690.168
348.15 K, 57945 kPa	692.261
348.15 K, 62063 kPa	695.106
348.15 K, 64942 kPa	696.91
348.15 K, 66153 kPa	697.788
348.16 K, 291.7 kPa	636.475
348.16 K, 7050.2 kPa	645.632
348.16 K, 9003.2 kPa	648.038
348.16 K, 12187 kPa	651.83
348.16 K, 17899 kPa	658.098
348.16 K, 25100 kPa	665.329
348.16 K, 32942 kPa	672.463
348.16 K, 42066 kPa	680.23
348.16 K, 60030 kPa	693.748
353.15 K, 100.5 kPa	631.649
353.15 K, 336 kPa	631.995
353.15 K, 572.6 kPa	632.233
353.15 K, 926 kPa	632.774
353.15 K, 1016.4 kPa	632.95
353.15 K, 2992.1 kPa	635.919
353.15 K, 4963.9 kPa	638.644
353.15 K, 7000.9 kPa	641.284
353.15 K, 9062.3 kPa	643.911
353.15 K, 10005 kPa	645.176
353.15 K, 12128 kPa	647.788
353.15 K, 14954 kPa	651.028
353.15 K, 17977 kPa	654.406
353.15 K, 19937 kPa	656.492
353.15 K, 21894 kPa	658.507
353.15 K, 24908 kPa	661.562
353.15 K, 27850 kPa	664.482
353.15 K, 29936 kPa	666.345
353.15 K, 31876 kPa	668.022
353.15 K, 32911 kPa	668.934
353.15 K, 32961 kPa	669.075
353.15 K, 34945 kPa	670.985
353.15 K, 37913 kPa	673.509
353.15 K, 40143 kPa	675.336
353.15 K, 42067 kPa	677.003
353.15 K, 45002 kPa	679.292
353.15 K, 48029 kPa	681.775
353.15 K, 50145 kPa	683.478
353.15 K, 52082 kPa	685.052
353.15 K, 55132 kPa	687.213
353.15 K, 57980 kPa	689.013
353.15 K, 60098 kPa	690.731
353.15 K, 65063 kPa	694.154
353.16 K, 2113.4 kPa	634.631
353.16 K, 33964 kPa	670.126
353.16 K, 62042 kPa	692.223
353.16 K, 66024 kPa	694.802
358.15 K, 100.4 kPa	626.935
358.15 K, 264.1 kPa	627.168
358.15 K, 508.4 kPa	627.316
358.15 K, 926.8 kPa	628.098
358.15 K, 1013.9 kPa	628.327
358.15 K, 3021.2 kPa	631.365
358.15 K, 4930 kPa	634.077
358.15 K, 10073 kPa	641.066
358.15 K, 12137 kPa	643.735
358.15 K, 14905 kPa	646.944
358.15 K, 17965 kPa	650.491
358.15 K, 22175 kPa	654.965
358.15 K, 25059 kPa	657.993
358.15 K, 28035 kPa	660.974
358.15 K, 30002 kPa	662.532
358.15 K, 31978 kPa	664.488
358.15 K, 32793 kPa	665.093
358.15 K, 33039 kPa	665.404
358.15 K, 33850 kPa	666.525
358.15 K, 35026 kPa	667.567
358.15 K, 37872 kPa	669.996
358.15 K, 40037 kPa	671.748
358.15 K, 42100 kPa	673.454
358.15 K, 47958 kPa	678.424
358.15 K, 50038 kPa	680.129
358.15 K, 52081 kPa	681.85
358.15 K, 55073 kPa	684.059
358.15 K, 57918 kPa	685.685
358.15 K, 60043 kPa	687.68
358.15 K, 62066 kPa	689.111
358.15 K, 64986 kPa	691.283
358.15 K, 66109 kPa	692.023
358.16 K, 2083.9 kPa	629.903
358.16 K, 6993.5 kPa	637.086
358.16 K, 9030.2 kPa	639.755
358.16 K, 20162 kPa	652.87
358.16 K, 45054 kPa	675.954
363.15 K, 104.1 kPa	622.138
363.15 K, 334 kPa	622.474
363.15 K, 601.7 kPa	622.649
363.15 K, 892.9 kPa	623.267
363.15 K, 1034.7 kPa	623.668
363.15 K, 1986 kPa	625.081
363.15 K, 2940.4 kPa	626.678
363.15 K, 4979.2 kPa	629.757
363.15 K, 9959.5 kPa	636.563
363.15 K, 11971 kPa	639.421
363.15 K, 14936 kPa	642.887
363.15 K, 17973 kPa	646.544
363.15 K, 19940 kPa	648.708
363.15 K, 24872 kPa	654.024
363.15 K, 27993 kPa	657.078
363.15 K, 30062 kPa	659.006
363.15 K, 31961 kPa	660.63
363.15 K, 33033 kPa	661.606
363.15 K, 33053 kPa	661.633
363.15 K, 34000 kPa	663.017
363.15 K, 35028 kPa	664.03
363.15 K, 37919 kPa	666.495
363.15 K, 39916 kPa	668.059
363.15 K, 42016 kPa	669.917
363.15 K, 47947 kPa	675.063
363.15 K, 50050 kPa	676.807
363.15 K, 52023 kPa	678.457
363.15 K, 54940 kPa	680.815
363.15 K, 57916 kPa	682.78
363.15 K, 59980 kPa	684.625
363.15 K, 62043 kPa	686.168
363.15 K, 64924 kPa	688.267
363.15 K, 66088 kPa	689.169
363.16 K, 6920.2 kPa	632.642
363.16 K, 8964.8 kPa	635.395
363.16 K, 21933 kPa	650.806
363.16 K, 44987 kPa	672.551
